From article PMC6981454, “Promising 2,6,9-Trisubstituted Purine Derivatives for Anticancer Compounds: Synthesis, 3D-QSAR, and Preliminary Biological Assays” (International Journal of Molecular Sciences, 2019)
Like-named read-outs stand apart in the source and are kept apart here.

Legend:
Assay type in all cases: cell-based, human
HL-60 cells [1] = assay: Cell viability by propidium iodide flow cytometry; conditions: HL-60, 50 μM, 24 h, PI staining
Description: Next, in order to determinate the cell death type induced by the most promising compounds, we performed a flow cytometry analysis of cell viability in cell line HL-60 treated with the most promising compounds (selected according to their IC50 values and SI). The HL-60 cancer cells were chosen due to their sensitivity to prepared compounds. […] As a preliminary apoptosis filter, propidium iodide (PI) staining was used through flow cytometry analysis which discriminated a population of viable cells impermeable to PI (PI negative) from necrotic cells PI-permeable (PI positive) and apoptotic cells (the difference of the previous two). The results are shown in Figure 7, illustrating that all purine derivatives tested induced apoptosis on HL-60 cells. Around 40% of apoptotic cells were detected in a culture treated with compounds 7a and 7i, 30% by 7e, 7g, and 7h and 70% by 7d and 7j. […] (For dot plots, see Supplementary Information Figures S1–S3.)
Cell viability was analyzed by flow cytometry as previously described. In this assay, after setting the baseline to exclude cell debris, cells impermeable to propidium iodide (PI negative) are considered as viable. Two populations of PI-permeable dead cells are distinguished based on fluorescence intensity, corresponding to either hypodiploid apoptotic cells or necrotic cells with intact DNA. Here, HL60 cells were incubated with concentrations of 50 µM of each compound for 24 h at 37 °C. Cells were harvested and stained with 10 µg/mL of propidium iodide to determine cell viability. Samples containing roughly 1 × 10^4 cells were evaluated by flow cytometry (FACScanto II; Becton Dickinson, Mountain View, CA) and analyzed using FCS Express v6 software. Three independent biological replicates were performed.

MRC-5 = assay: MTT cytotoxicity assay, 72 h, normal control cells; conditions: Homo sapiens, MRC5, IC50 ± SD, normal fibroblasts
Protocol: (§1) In our study, the human cancer cell lines used were CFAPC- 1 (pancreatic adenocarcinoma); NCI-H460 (large cell lung); HL-60 (acute promyelocytic leukaemia); CACO2 (colorectal adenocarcinoma); HCT-116 (colorectal carcinoma); K562 (chronic myeloid leukaemia); MCF-7 (breast adenocarcinoma); and MRC-5 control cells (normal fibroblasts).
(§2) CFAPC-1, NCI-H460 H1975, HL-60, HCT-116, CACO2, K562, MCF-7, and MCR-5 were grown and maintained in RPMI 1640 and DMEM F12 as appropriate with 10% fetal bovine serum, 100 UI/mL penicillin–streptomycin, and cultured al 37 °C in 5% CO2 humidified atmosphere. Control cultures were treated with dimethyl sulfoxide (1%) alone at the same concentration as in the purine derivatives treatment. Cell viability was determined by trypan blue dye exclusion. Cell numbers were counted in hemocytometer by light microscopy.
(§3) Cytotoxicity assays were performed by using the MTT reduction method as described in the literature. Briefly, cancer cell lines were plated in a flat-bottom 96-wells plate at 1 × 10^4 cells per well density. Then, the cells were incubated with synthetized compounds at different concentrations (from 0.1 to 100 µM) in 200 µL of 10% fetal bovine serum-RPMI or EMEM culture medium at 37 °C for 72 h. Then, 10 µL of MTT was added at a final concentration of 0.5 mg/mL, incubated at 37 °C for 4 h, and then solubilized with 10% sodium dodecyl sulphate (SDS) in 0.1 mM HCl and incubated overnight at 37 °C. Formazan formation was measured at 570 nm in a multi-well reader (StatFax 4200).

HCT-116 = assay: MTT cytotoxicity assay, 72 h; conditions: Homo sapiens, HCT-116, IC50 ± SD
Protocol: as §1, §2, §3

MCF-7 = assay: MTT cytotoxicity assay, 72 h
Protocol: as §1, §2, §3

HL-60 = assay: MTT cytotoxicity assay, 72 h; conditions: for IC50: Homo sapiens
Protocol: as §1, §2, §3

CFPAC-1 = assay: MTT cytotoxicity assay, 72 h; conditions: Homo sapiens, CFPAC-1, IC50 ± SD
Protocol: as §1, §2, §3

NCI-H460 = assay: MTT cytotoxicity assay, 72 h
Protocol: as §1, §2, §3

K562 = assay: MTT cytotoxicity assay, 72 h
Protocol: as §1, §2, §3

HL-60 cells [2] = assay: Annexin-V FITC/PI apoptosis assay by flow cytometry; conditions: for Q2 (late apoptosis) cells / Q3 (viable) cells: 24 h
Protocol: To assess an unequivocal identification of apoptosis, annexin-V FITC is commonly combined with PI to understand if cells are viable, apoptotic, or necrotic through differences in plasma membrane integrity and permeability. To better understand the ability of compound 7h (the lowest IC50 values and high SI) to induce cell death, we performed the annexin-V FITC/PI assay. HL-60 cells were treated with 7h at the dose corresponding to 5 and 50 μM by 24 h, then harvested and stained with annexin-V FITC and PI (Figure 8). […] In addition, Figure 8 illustrates a discrete increase in the apoptosis (Q2 and Q4) from 5 to 50 µM, as well as an increase in necrosis at the concentration of 50 µM.
HL60 cells were seeded into a 12-well plate (5 × 10^5 per well) and incubated in RPMI 1640 […] for 24 h at 37 °C—then, replaced with fresh medium containing the tested compound 7h at indicated concentrations for another 24 h. The cells were collected and then used the Annexin-V/PI Alexa Fluor 488 apoptosis kit (Invitrogen, Carlsbad, CA, USA) according to the instruction of manufacturer to detect the apoptosis cells, which were analyzed by flow cytometry (BD; FACScanto II, Mountain View, CA) and data were processed using FCS Express v6 software. Two independent biological replicates were performed.

## O=[N+]([O-])c1ccc(N2CCN(c3nc(Cl)nc4c3ncn4C3CCCC3)CC2)cc1 [7h, 2-Chloro-9-cyclopentyl-6-(4-(4-nitrophenyl)piperazin-1-yl)-9H-purine]
HL-60 cells [1]
  apoptotic cells: ~30%
MRC-5
  IC50: > 100000 nM
HCT-116
  IC50: 30000 ± 7100 nM
MCF-7; IC50 in MRC-5 / IC50 in MCF-7
  Selectivity Index (SI) MRC-5/MCF-7: > 64.5
MCF-7; MTT, 72 h, IC50 ± SD
  IC50: 1550 ± 340 nM
HL-60; HL-60, 72 h, MTT, 72 h, IC50 ± SD, read-out: IC50 HL-60
  IC50: 400 ± 10 nM
HL-60; HL-60, -logIC50 in molar concentration, Table S1, read-out: Experimental pIC50 (HL-60) (converted)
  IC50: 400 nM
HL-60; IC50 in MRC-5 / IC50 in HL-60
  Selectivity Index (SI) MRC-5/HL-60: > 250
CFPAC-1
  IC50: > 100000 nM
NCI-H460; Homo sapiens, NCI-H460, 72 h, MTT, 72 h, IC50 ± SD, read-out: IC50 NCI-H460
  IC50: 1300 nM
NCI-H460; Homo sapiens, NCI-H460, -logIC50 in molar concentration, Table S2, read-out: Experimental pIC50 (NCI-H460) (converted)
  IC50: 1310 nM
NCI-H460; IC50 in MRC-5 / IC50 in NCI-H460
  Selectivity Index (SI) MRC-5/NCI-H460: > 76.3
NCI-H460; MTT, 72 h, IC50 ± SD, read-out: IC50 NCI-H460
  IC50: 1310 ± 70 nM
K562; Homo sapiens, K562, 72 h, MTT, 72 h, IC50 ± SD
  IC50: 1020 ± 40 nM
K562; IC50 in MRC-5 / IC50 in K562
  Selectivity Index (SI) MRC-5/K562: > 98
HL-60 cells [2]; HL-60, 5 μM
  Q2 (late apoptosis) cells: 36.5%
HL-60 cells [2]; HL-60, 5 μM, 5 µM
  Q3 (viable) cells: ~55%
HL-60 cells [2]; HL-60, 50 μM
  Q2 (late apoptosis) cells: 37.7%
HL-60 cells [2]; HL-60, 50 μM, 50 µM
  Q3 (viable) cells: 38%
HL-60 cells [2]; Homo sapiens, HL-60, 24 h, HL-60, 5 μM, read-out: Q3 (viable) cells
  viability at 5 µM: 55.2%
HL-60 cells [2]; Homo sapiens, HL-60, 24 h, HL-60, 50 μM, read-out: Q3 (viable) cells
  viability at 50 µM: 37.8%
